PubChem BioAssay (NCI)
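Where inhibition never reached the appropriate level, the endpoint shown equals the highest concentration tested. Otherwise, values were interpolated linearly from a five-concentration, 48-hour dose response in 96-well plates. Definition used: TGI = concentration required for complete inhibition of growth.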

tested on: HOP-62 NSCLC; test: NCI-60 cell line screen, 48 h

`O=c1ccc2ccc(S)cc2o1` and `CN(O)C(=O)/C=C/c1ccc(OCc2cccc(Cl)c2)cc1` cannot be ordered by TGI: over 100 µM for the first, over 100 µM for the second.

For `Cc1nc(N)c(N2CCN(C#N)CC2)c(=O)[nH]1`, the TGI was over 100 µM.

tested on: M14 melanoma; test: NCI-60 cell line screen, 48 h

`[N-]=[N+]=CC(=O)C1CCCN1C(=O)c1ccccc1` (stereo not drawn) and `CN(O)C(=O)/C=C/c1ccc(OCc2cccc(Cl)c2)cc1` cannot be ordered by TGI: over 10 µM for the first, over 100 µM for the second.

`CC(=O)Nc1nc(Cl)cc(NCC2(CO)CCC2)n1` and `O=c1ccc2ccc(S)cc2o1` cannot be ordered by TGI: over 100 µM for the first, over 100 µM for the second.

First: O=C(COc1ccc(OCC(=O)N/N=C/c2ccc(-c3ccc(Cl)cc3Cl)o2)c(Cl)c1)N/N=C/c1ccc(-c2ccc(Cl)cc2Cl)o1
Second: Cc1ccc2cccc(-c3cccc4ccccc34)c2n1
The TGI of the first is higher: over 100 µM for the first, 55.6 µM for the second.

Work on `Cc1nc(N)c(N2CCN(C#N)CC2)c(=O)[nH]1` yielded a TGI of over 100 µM.

tested on: HT29 colon; test: NCI-60 cell line screen, 48 h

`[N-]=[N+]=CC(=O)C1CCCN1C(=O)c1ccccc1` (stereo not drawn) and `CN(O)C(=O)/C=C/c1ccc(OCc2cccc(Cl)c2)cc1` cannot be ordered by TGI: over 10 µM for the first, 34.9 µM for the second.

`CC(=O)Nc1nc(Cl)cc(NCC2(CO)CCC2)n1` and `O=c1ccc2ccc(S)cc2o1` cannot be ordered by TGI: over 100 µM for the first, over 100 µM for the second.

First: O=C(COc1ccc(OCC(=O)N/N=C/c2ccc(-c3ccc(Cl)cc3Cl)o2)c(Cl)c1)N/N=C/c1ccc(-c2ccc(Cl)cc2Cl)o1
Second: Cc1ccc2cccc(-c3cccc4ccccc34)c2n1
The TGI of the first is higher: over 100 µM for the first, 76.9 µM for the second.

`Cc1nc(N)c(N2CCN(C#N)CC2)c(=O)[nH]1` gave a TGI of over 100 µM.

tested on: NCI-H522 lung; test: NCI-60 cell line screen, 48 h

`CC(=O)Nc1nc(Cl)cc(NCC2(CO)CCC2)n1` and `CN(O)C(=O)/C=C/c1ccc(OCc2cccc(Cl)c2)cc1` cannot be ordered by TGI: over 100 µM for the first, over 100 µM for the second.

Compared with `O=C(COc1ccc(OCC(=O)N/N=C/c2ccc(-c3ccc(Cl)cc3Cl)o2)c(Cl)c1)N/N=C/c1ccc(-c2ccc(Cl)cc2Cl)o1`, `Cc1ccc2cccc(-c3cccc4ccccc34)c2n1` is lower in TGI: over 100 µM for the first, 66.5 µM for the second.

`O=c1ccc2ccc(S)cc2o1` and `Cc1nc(N)c(N2CCN(C#N)CC2)c(=O)[nH]1` cannot be ordered by TGI: over 100 µM for the first, over 100 µM for the second.

tested on: COLO 205 colon; test: NCI-60 cell line screen, 48 h

`[N-]=[N+]=CC(=O)C1CCCN1C(=O)c1ccccc1` (stereo not drawn) and `CN(O)C(=O)/C=C/c1ccc(OCc2cccc(Cl)c2)cc1` cannot be ordered by TGI: over 10 µM for the first, over 100 µM for the second.

`CC(=O)Nc1nc(Cl)cc(NCC2(CO)CCC2)n1` and `O=c1ccc2ccc(S)cc2o1` cannot be ordered by TGI: over 100 µM for the first, over 100 µM for the second.

`O=C(COc1ccc(OCC(=O)N/N=C/c2ccc(-c3ccc(Cl)cc3Cl)o2)c(Cl)c1)N/N=C/c1ccc(-c2ccc(Cl)cc2Cl)o1` and `Cc1ccc2cccc(-c3cccc4ccccc34)c2n1` cannot be ordered by TGI: over 100 µM for the first, over 100 µM for the second.

With `Cc1nc(N)c(N2CCN(C#N)CC2)c(=O)[nH]1` the TGI was over 100 µM.

tested on: DU-145 prostate; test: NCI-60 cell line screen, 48 h

`[N-]=[N+]=CC(=O)C1CCCN1C(=O)c1ccccc1` (stereo not drawn) and `CN(O)C(=O)/C=C/c1ccc(OCc2cccc(Cl)c2)cc1` cannot be ordered by TGI: over 10 µM for the first, 54.8 µM for the second.

`CC(=O)Nc1nc(Cl)cc(NCC2(CO)CCC2)n1` and `O=c1ccc2ccc(S)cc2o1` cannot be ordered by TGI: over 100 µM for the first, over 100 µM for the second.

`O=C(COc1ccc(OCC(=O)N/N=C/c2ccc(-c3ccc(Cl)cc3Cl)o2)c(Cl)c1)N/N=C/c1ccc(-c2ccc(Cl)cc2Cl)o1` and `Cc1ccc2cccc(-c3cccc4ccccc34)c2n1` cannot be ordered by TGI: over 100 µM for the first, over 100 µM for the second.

In the case of `Cc1nc(N)c(N2CCN(C#N)CC2)c(=O)[nH]1`, the TGI is reported as over 100 µM.

tested on: NCI-H460 lung; test: NCI-60 cell line screen, 48 h

`[N-]=[N+]=CC(=O)C1CCCN1C(=O)c1ccccc1` (stereo not drawn) and `CN(O)C(=O)/C=C/c1ccc(OCc2cccc(Cl)c2)cc1` cannot be ordered by TGI: over 10 µM for the first, 43.3 µM for the second.

`CC(=O)Nc1nc(Cl)cc(NCC2(CO)CCC2)n1` and `O=c1ccc2ccc(S)cc2o1` cannot be ordered by TGI: over 100 µM for the first, over 100 µM for the second.

Going from `O=C(COc1ccc(OCC(=O)N/N=C/c2ccc(-c3ccc(Cl)cc3Cl)o2)c(Cl)c1)N/N=C/c1ccc(-c2ccc(Cl)cc2Cl)o1` to `Cc1ccc2cccc(-c3cccc4ccccc34)c2n1`, the TGI falls from over 100 µM to 89 µM.

`Cc1nc(N)c(N2CCN(C#N)CC2)c(=O)[nH]1` showed a TGI of over 100 µM.

tested on: SNB-19 CNS; test: NCI-60 cell line screen, 48 h

`[N-]=[N+]=CC(=O)C1CCCN1C(=O)c1ccccc1` (stereo not drawn) and `CN(O)C(=O)/C=C/c1ccc(OCc2cccc(Cl)c2)cc1` cannot be ordered by TGI: over 10 µM for the first, over 100 µM for the second.

`CC(=O)Nc1nc(Cl)cc(NCC2(CO)CCC2)n1` and `O=c1ccc2ccc(S)cc2o1` cannot be ordered by TGI: over 100 µM for the first, over 100 µM for the second.

`O=C(COc1ccc(OCC(=O)N/N=C/c2ccc(-c3ccc(Cl)cc3Cl)o2)c(Cl)c1)N/N=C/c1ccc(-c2ccc(Cl)cc2Cl)o1` and `Cc1ccc2cccc(-c3cccc4ccccc34)c2n1` cannot be ordered by TGI: over 100 µM for the first, over 100 µM for the second.

`Cc1nc(N)c(N2CCN(C#N)CC2)c(=O)[nH]1` gave a TGI of over 100 µM.

tested on: IGROV1 ovarian; test: NCI-60 cell line screen, 48 h

`[N-]=[N+]=CC(=O)C1CCCN1C(=O)c1ccccc1` (stereo not drawn) and `CN(O)C(=O)/C=C/c1ccc(OCc2cccc(Cl)c2)cc1` cannot be ordered by TGI: over 10 µM for the first, 60.8 µM for the second.

`CC(=O)Nc1nc(Cl)cc(NCC2(CO)CCC2)n1` and `O=c1ccc2ccc(S)cc2o1` cannot be ordered by TGI: over 100 µM for the first, over 100 µM for the second.

`O=C(COc1ccc(OCC(=O)N/N=C/c2ccc(-c3ccc(Cl)cc3Cl)o2)c(Cl)c1)N/N=C/c1ccc(-c2ccc(Cl)cc2Cl)o1` and `Cc1ccc2cccc(-c3cccc4ccccc34)c2n1` cannot be ordered by TGI: over 100 µM for the first, over 100 µM for the second.

tested on: OVCAR-4 ovarian; test: NCI-60 cell line screen, 48 h

`[N-]=[N+]=CC(=O)C1CCCN1C(=O)c1ccccc1` (stereo not drawn) and `CN(O)C(=O)/C=C/c1ccc(OCc2cccc(Cl)c2)cc1` cannot be ordered by TGI: over 10 µM for the first, 86.6 µM for the second.

`CC(=O)Nc1nc(Cl)cc(NCC2(CO)CCC2)n1` and `O=c1ccc2ccc(S)cc2o1` cannot be ordered by TGI: over 100 µM for the first, over 100 µM for the second.

`O=C(COc1ccc(OCC(=O)N/N=C/c2ccc(-c3ccc(Cl)cc3Cl)o2)c(Cl)c1)N/N=C/c1ccc(-c2ccc(Cl)cc2Cl)o1` and `Cc1ccc2cccc(-c3cccc4ccccc34)c2n1` cannot be ordered by TGI: over 100 µM for the first, over 100 µM for the second.

tested on: HOP-92 NSCLC; test: NCI-60 cell line screen, 48 h

`[N-]=[N+]=CC(=O)C1CCCN1C(=O)c1ccccc1` (stereo not drawn) and `CN(O)C(=O)/C=C/c1ccc(OCc2cccc(Cl)c2)cc1` cannot be ordered by TGI: over 10 µM for the first, over 100 µM for the second.

`CC(=O)Nc1nc(Cl)cc(NCC2(CO)CCC2)n1` and `O=c1ccc2ccc(S)cc2o1` cannot be ordered by TGI: over 100 µM for the first, over 100 µM for the second.

For `Cc1ccc2cccc(-c3cccc4ccccc34)c2n1`, the TGI was 62.1 µM.

tested on: TK-10 renal; test: NCI-60 cell line screen, 48 h

`[N-]=[N+]=CC(=O)C1CCCN1C(=O)c1ccccc1` (stereo not drawn) and `CN(O)C(=O)/C=C/c1ccc(OCc2cccc(Cl)c2)cc1` cannot be ordered by TGI: over 10 µM for the first, over 100 µM for the second.

First: O=C(COc1ccc(OCC(=O)N/N=C/c2ccc(-c3ccc(Cl)cc3Cl)o2)c(Cl)c1)N/N=C/c1ccc(-c2ccc(Cl)cc2Cl)o1
Second: Cc1ccc2cccc(-c3cccc4ccccc34)c2n1
The TGI of the first is higher: over 100 µM for the first, 36.2 µM for the second.

`O=c1ccc2ccc(S)cc2o1` and `Cc1nc(N)c(N2CCN(C#N)CC2)c(=O)[nH]1` cannot be ordered by TGI: over 100 µM for the first, over 100 µM for the second.

tested on: OVCAR-8 ovarian; test: NCI-60 cell line screen, 48 h

`[N-]=[N+]=CC(=O)C1CCCN1C(=O)c1ccccc1` (stereo not drawn) and `CN(O)C(=O)/C=C/c1ccc(OCc2cccc(Cl)c2)cc1` cannot be ordered by TGI: over 10 µM for the first, 32.8 µM for the second.

`CC(=O)Nc1nc(Cl)cc(NCC2(CO)CCC2)n1` and `O=c1ccc2ccc(S)cc2o1` cannot be ordered by TGI: over 100 µM for the first, over 100 µM for the second.

Going from `O=C(COc1ccc(OCC(=O)N/N=C/c2ccc(-c3ccc(Cl)cc3Cl)o2)c(Cl)c1)N/N=C/c1ccc(-c2ccc(Cl)cc2Cl)o1` to `Cc1ccc2cccc(-c3cccc4ccccc34)c2n1`, the TGI falls from over 100 µM to 57.7 µM.

In the case of `Cc1nc(N)c(N2CCN(C#N)CC2)c(=O)[nH]1`, the TGI is reported as over 100 µM.

tested on: K-562 leukemia; test: NCI-60 cell line screen, 48 h

`[N-]=[N+]=CC(=O)C1CCCN1C(=O)c1ccccc1` (stereo not drawn) and `CN(O)C(=O)/C=C/c1ccc(OCc2cccc(Cl)c2)cc1` cannot be ordered by TGI: over 10 µM for the first, over 100 µM for the second.

`CC(=O)Nc1nc(Cl)cc(NCC2(CO)CCC2)n1` and `Cc1nc(N)c(N2CCN(C#N)CC2)c(=O)[nH]1` cannot be ordered by TGI: over 100 µM for the first, over 100 µM for the second.

Going from `O=C(COc1ccc(OCC(=O)N/N=C/c2ccc(-c3ccc(Cl)cc3Cl)o2)c(Cl)c1)N/N=C/c1ccc(-c2ccc(Cl)cc2Cl)o1` to `Cc1ccc2cccc(-c3cccc4ccccc34)c2n1`, the TGI falls from 50.2 µM to 21 µM (2.4-fold).

tested on: NCI-H23 lung; test: NCI-60 cell line screen, 48 h

`[N-]=[N+]=CC(=O)C1CCCN1C(=O)c1ccccc1` (stereo not drawn) and `CN(O)C(=O)/C=C/c1ccc(OCc2cccc(Cl)c2)cc1` cannot be ordered by TGI: over 10 µM for the first, 49 µM for the second.

`CC(=O)Nc1nc(Cl)cc(NCC2(CO)CCC2)n1` and `O=c1ccc2ccc(S)cc2o1` cannot be ordered by TGI: over 100 µM for the first, over 100 µM for the second.

`O=C(COc1ccc(OCC(=O)N/N=C/c2ccc(-c3ccc(Cl)cc3Cl)o2)c(Cl)c1)N/N=C/c1ccc(-c2ccc(Cl)cc2Cl)o1` and `Cc1ccc2cccc(-c3cccc4ccccc34)c2n1` cannot be ordered by TGI: over 100 µM for the first, over 100 µM for the second.

`Cc1nc(N)c(N2CCN(C#N)CC2)c(=O)[nH]1` showed a TGI of over 100 µM.

tested on: KM12 colon; test: NCI-60 cell line screen, 48 h

`[N-]=[N+]=CC(=O)C1CCCN1C(=O)c1ccccc1` (stereo not drawn) and `Cc1ccc2cccc(-c3cccc4ccccc34)c2n1` cannot be ordered by TGI: over 10 µM for the first, 63.4 µM for the second.

`CC(=O)Nc1nc(Cl)cc(NCC2(CO)CCC2)n1` and `O=C(COc1ccc(OCC(=O)N/N=C/c2ccc(-c3ccc(Cl)cc3Cl)o2)c(Cl)c1)N/N=C/c1ccc(-c2ccc(Cl)cc2Cl)o1` cannot be ordered by TGI: over 100 µM for the first, over 100 µM for the second.
